Results taken from BindingDB's records for doi:10.1021/jm00038a005 (Bristol-Myers Squibb, 1994).

Molecular target: T1, Dimer of Gag-Pol polyprotein [489-587] (Human immunodeficiency virus 1, UniProt P12497)
T1 construct: 489-587
Test: Protease Inhibition Assay
Conditions: pH 5.5; 37 °C
Experimental: Sensitivity of HIV-1 protease activity to protease inhibitors was determined by a peptide substrate cleavage assay. Protease products were analyzed on a reverse-phase high-pressure liquid chromatograph.

SMILES	IC50 [nM]	Ki [nM]
CC(C)(C)OC(=O)N[C@@H](CC1CCCCC1)[C@H](O)CNC[C@@H](O)[C@H](CC1CCCCC1)NC(=O)OC(C)(C)C [(R,S)-[Iminobis[1-(cyclohexylmethyl)-2-hydroxy-3,1-propanediyl]]bis[carbamic acid], Bis(1,1-dimethylethylester)]	800	–
CC(C)(C)OC(=O)N[C@@H](Cc1ccccc1)[C@H](O)CNC[C@@H](O)[C@H](Cc1ccc(O)cc1)NC(=O)OC(C)(C)C [BMS-186318 analog 4]	100	–
CC(C)(C)OC(=O)N[C@@H](Cc1ccccc1)[C@H](O)CNC[C@@H](O)[C@H](Cc1ccccc1)NC(=O)OC(C)(C)C [tert-butyl N-[(2S,3R)-4-{[(2R,3S)-3-{[(tert-butoxy)carbonyl]amino}-2-hydroxy-4-phenylbutyl]amino}-3-hydroxy-1-phenylbutan-2-yl]carbamate]	–	100
CC(C)(C)OC(=O)N[C@@H](CCc1ccccc1)[C@H](O)CNC[C@@H](O)[C@H](Cc1ccccc1)NC(=O)OC(C)(C)C [tert-butyl N-[(2S,3R)-4-{[(2R,3S)-3-{[(tert-butoxy)carbonyl]amino}-2-hydroxy-5-phenylpentyl]amino}-3-hydroxy-1-phenylbutan-2-yl]carbamate]	500	–
